Source: patent publication US20260232767A1, “INTERLEUKIN-23 RECEPTOR ANTAGONIST PEPTIDES FOR USE IN THE TREATMENT OF PSORIASIS” (Janssen Pharmaceutica NV, priority 2023, published 2026)

Tested on: subjects with moderate-to-severe plaque psoriasis
Experiment: Hematology and chemistry laboratory values by CTCAE grade
Format: in vivo, human
Conditions: through Week 56
Source text: The proportion of participants who discontinued study intervention due to one or more AEs was low (n=4). All events were singular in nature with no apparent dose-dependent increase (Table 48 and Table 52). The number of participants with abnormal hematology and chemistry laboratory values with CTCAE toxicity grade≥3 were low through the end of the study (Table 43 through Table 46). There was no apparent dose-dependent increase in laboratory abnormality occurrences.

## CC(=O)NCCCC[C@@H]1NC(=O)[C@H](Cc2c[nH]c3c(C)cccc23)NC(=O)[C@H]([C@@H](C)O)NC(=O)[C@H](CC(N)=O)NC(=O)[C@@H](NC(C)=O)C(C)(C)SSC(C)(C)[C@@H](C(=O)N[C@@H](Cc2ccc(OCCN)cc2)C(=O)N[C@@H](Cc2ccc3ccccc3c2)C(=O)NC2(C(=O)N[C@@H](CCC(=O)O)C(=O)N[C@@H](CC(N)=O)C(=O)N[C@@H](Cc3cccnc3)C(=O)N(C)CC(N)=O)CCOCC2)NC1=O [IL-23 receptor antagonist peptide, Ac-[Pen]*-N-T-[W(7-Me)]-[Lys(Ac)]-[Pen]*-Phe[4-(2-aminoethoxy)]-[2-Nal]-[THP]-E-N-[3-Pal]-Sarc-NH2 (*[Pen]-[Pen]* formdisulfidebond)]
25 mg BID
  Alanine Aminotransferase (increased): Subjects with Grade 3: 0
  Alanine Aminotransferase (increased): Subjects with Grade 4: 0
  Albumin (decreased): Subjects with Grade 1: 0
  Albumin (decreased): Subjects with Grade 2: 0
  Albumin (decreased): Subjects with Grade 3: 0
  Albumin (decreased): Subjects with Grade 4: 0
  Albumin (decreased): Subjects with postbaseline maximum toxicity grade >0: 0
  Alkaline Phosphatase (increased): Subjects with Grade 2: 0
  Alkaline Phosphatase (increased): Subjects with Grade 3: 0
  Alkaline Phosphatase (increased): Subjects with Grade 4: 0
  Aspartate Aminotransferase (increased): Subjects with Grade 3: 0
  Aspartate Aminotransferase (increased): Subjects with Grade 4: 0
  Calcium corrected (decreased): Subjects with Grade 2: 0
  Calcium corrected (decreased): Subjects with Grade 3: 0
  Calcium corrected (decreased): Subjects with Grade 4: 0
  Calcium corrected (increased): Subjects with Grade 1: 0
  Calcium corrected (increased): Subjects with Grade 2: 0
  Calcium corrected (increased): Subjects with Grade 3: 0
  Calcium corrected (increased): Subjects with Grade 4: 0
  Calcium corrected (increased): Subjects with postbaseline maximum toxicity grade >0: 0
  Cholesterol (increased): Subjects with Grade 2: 0
  Cholesterol (increased): Subjects with Grade 3: 0
  Cholesterol (increased): Subjects with Grade 4: 0
  Creatinine (increased): Subjects with Grade 1: 0
  Creatinine (increased): Subjects with Grade 2: 0
  Creatinine (increased): Subjects with Grade 3: 0
  Creatinine (increased): Subjects with Grade 4: 0
  Creatinine (increased): Subjects with postbaseline maximum toxicity grade >0: 0
  Gamma Glutamyl Transferase (increased): Subjects with Grade 2: 0
  Gamma Glutamyl Transferase (increased): Subjects with Grade 3: 0
  Gamma Glutamyl Transferase (increased): Subjects with Grade 4: 0
  Glucose (decreased): Subjects with Grade 2: 0
  Glucose (decreased): Subjects with Grade 3: 0
  Glucose (decreased): Subjects with Grade 4: 0
  Hemoglobin (g/L) (decreased): subjects with Grade 1: 0
  Hemoglobin (g/L) (decreased): subjects with Grade 2: 0
  Hemoglobin (g/L) (decreased): subjects with Grade 3: 0
  Hemoglobin (g/L) (decreased): subjects with Grade 4: 0
  Hemoglobin (g/L) (decreased): subjects with postbaseline maximum toxicity grade >0: 0
  Hemoglobin (g/L) (increased): subjects with Grade 2: 0
  Hemoglobin (g/L) (increased): subjects with Grade 3: 0
  Hemoglobin (g/L) (increased): subjects with Grade 4: 0
  Lymphocytes (×10^9/L) (decreased): subjects with Grade 3: 0
  Lymphocytes (×10^9/L) (decreased): subjects with Grade 4: 0
  Lymphocytes (×10^9/L) (increased): subjects with Grade 1: 0
  Lymphocytes (×10^9/L) (increased): subjects with Grade 3: 0
  Lymphocytes (×10^9/L) (increased): subjects with Grade 4: 0
  Magnesium (decreased): Subjects with Grade 1: 0
  Magnesium (decreased): Subjects with Grade 2: 0
  Magnesium (decreased): Subjects with Grade 3: 0
  Magnesium (decreased): Subjects with Grade 4: 0
  Magnesium (decreased): Subjects with postbaseline maximum toxicity grade >0: 0
  Magnesium (increased): Subjects with Grade 2: 0
  Magnesium (increased): Subjects with Grade 3: 0
  Magnesium (increased): Subjects with Grade 4: 0
  Neutrophils (×10^9/L) (decreased): subjects with Grade 3: 0
  Neutrophils (×10^9/L) (decreased): subjects with Grade 4: 0
  Platelets (×10^9/L) (decreased): subjects with Grade 2: 0
  Platelets (×10^9/L) (decreased): subjects with Grade 3: 0
  Platelets (×10^9/L) (decreased): subjects with Grade 4: 0
  Potassium (decreased): Subjects with Grade 1: 0
  Potassium (decreased): Subjects with Grade 2: 0
  Potassium (decreased): Subjects with Grade 3: 0
  Potassium (decreased): Subjects with Grade 4: 0
  Potassium (decreased): Subjects with postbaseline maximum toxicity grade >0: 0
  Potassium (increased): Subjects with Grade 2: 0
  Potassium (increased): Subjects with Grade 3: 0
  Potassium (increased): Subjects with Grade 4: 0
  Sodium (decreased): Subjects with Grade 1: 0
  Sodium (decreased): Subjects with Grade 2: 0
  Sodium (decreased): Subjects with Grade 3: 0
  Sodium (decreased): Subjects with Grade 4: 0
  Sodium (decreased): Subjects with postbaseline maximum toxicity grade >0: 0
  Sodium (increased): Subjects with Grade 2: 0
  Sodium (increased): Subjects with Grade 3: 0
  Sodium (increased): Subjects with Grade 4: 0
  Total Bilirubin (increased): Subjects with Grade 2: 0
  Total Bilirubin (increased): Subjects with Grade 3: 0
  Total Bilirubin (increased): Subjects with Grade 4: 0
  Triglycerides (increased): Subjects with Grade 3: 0
  Triglycerides (increased): Subjects with postbaseline maximum toxicity grade >0: 8
  WBC (×10^9/L) (decreased): subjects with Grade 3: 0
  WBC (×10^9/L) (decreased): subjects with Grade 4: 0
  WBC (×10^9/L) (increased): subjects with Grade 1: 0
  WBC (×10^9/L) (increased): subjects with Grade 2: 0
  WBC (×10^9/L) (increased): subjects with Grade 3: 0
  WBC (×10^9/L) (increased): subjects with Grade 4: 0
  WBC (×10^9/L) (increased): subjects with postbaseline maximum toxicity grade >0: 0
25 mg QD
  Alanine Aminotransferase (increased): Subjects with Grade 1: 7
  Alanine Aminotransferase (increased): Subjects with Grade 4: 0
  Alanine Aminotransferase (increased): Subjects with postbaseline maximum toxicity grade >0: 9
  Albumin (decreased): Subjects with Grade 1: 0
  Albumin (decreased): Subjects with Grade 2: 0
  Albumin (decreased): Subjects with Grade 3: 0
  Albumin (decreased): Subjects with Grade 4: 0
  Albumin (decreased): Subjects with postbaseline maximum toxicity grade >0: 0
  Alkaline Phosphatase (increased): Subjects with Grade 2: 0
  Alkaline Phosphatase (increased): Subjects with Grade 3: 0
  Alkaline Phosphatase (increased): Subjects with Grade 4: 0
  Aspartate Aminotransferase (increased): Subjects with Grade 1: 5
  Aspartate Aminotransferase (increased): Subjects with Grade 3: 0
  Aspartate Aminotransferase (increased): Subjects with Grade 4: 0
  Calcium corrected (decreased): Subjects with Grade 2: 0
  Calcium corrected (decreased): Subjects with Grade 3: 0
  Calcium corrected (decreased): Subjects with Grade 4: 0
  Calcium corrected (increased): Subjects with Grade 1: 0
  Calcium corrected (increased): Subjects with Grade 2: 0
  Calcium corrected (increased): Subjects with Grade 3: 0
  Calcium corrected (increased): Subjects with Grade 4: 0
  Calcium corrected (increased): Subjects with postbaseline maximum toxicity grade >0: 0
  Cholesterol (increased): Subjects with Grade 2: 0
  Cholesterol (increased): Subjects with Grade 3: 0
  Cholesterol (increased): Subjects with Grade 4: 0
  Creatinine (increased): Subjects with Grade 2: 0
  Creatinine (increased): Subjects with Grade 3: 0
  Creatinine (increased): Subjects with Grade 4: 0
  Gamma Glutamyl Transferase (increased): Subjects with Grade 1: 5
  Gamma Glutamyl Transferase (increased): Subjects with Grade 2: 0
  Gamma Glutamyl Transferase (increased): Subjects with Grade 3: 0
  Gamma Glutamyl Transferase (increased): Subjects with Grade 4: 0
  Gamma Glutamyl Transferase (increased): Subjects with postbaseline maximum toxicity grade >0: 5
  Glucose (decreased): Subjects with Grade 2: 0
  Glucose (decreased): Subjects with Grade 3: 0
  Glucose (decreased): Subjects with Grade 4: 0
  Hemoglobin (g/L) (decreased): subjects with Grade 2: 0
  Hemoglobin (g/L) (decreased): subjects with Grade 3: 0
  Hemoglobin (g/L) (decreased): subjects with Grade 4: 0
  Hemoglobin (g/L) (increased): subjects with Grade 2: 0
  Hemoglobin (g/L) (increased): subjects with Grade 3: 0
  Hemoglobin (g/L) (increased): subjects with Grade 4: 0
  Lymphocytes (×10^9/L) (decreased): subjects with Grade 1: 0
  Lymphocytes (×10^9/L) (decreased): subjects with Grade 2: 0
  Lymphocytes (×10^9/L) (decreased): subjects with Grade 3: 0
  Lymphocytes (×10^9/L) (decreased): subjects with Grade 4: 0
  Lymphocytes (×10^9/L) (decreased): subjects with postbaseline maximum toxicity grade >0: 0
  Lymphocytes (×10^9/L) (increased): subjects with Grade 1: 0
  Lymphocytes (×10^9/L) (increased): subjects with Grade 2: 0
  Lymphocytes (×10^9/L) (increased): subjects with Grade 3: 0
  Lymphocytes (×10^9/L) (increased): subjects with Grade 4: 0
  Lymphocytes (×10^9/L) (increased): subjects with postbaseline maximum toxicity grade >0: 0
  Magnesium (decreased): Subjects with Grade 1: 0
  Magnesium (decreased): Subjects with Grade 2: 0
  Magnesium (decreased): Subjects with Grade 3: 0
  Magnesium (decreased): Subjects with Grade 4: 0
  Magnesium (decreased): Subjects with postbaseline maximum toxicity grade >0: 0
  Magnesium (increased): Subjects with Grade 2: 0
  Magnesium (increased): Subjects with Grade 3: 0
  Magnesium (increased): Subjects with Grade 4: 0
  Neutrophils (×10^9/L) (decreased): subjects with Grade 2: 0
  Neutrophils (×10^9/L) (decreased): subjects with Grade 3: 0
  Neutrophils (×10^9/L) (decreased): subjects with Grade 4: 0
